{"source": "patent US20070009537A1", "about": "“Antimicrobial activity of antibodies producing reactive oxygen species” (priority 2002, published 2007)", "molecules": {"B1": {"name": "RNase A: ribonuclease, non-immunoglobulin control protein (protein, UniProt P61823 27-150, looked up)", "Ribonuclease pancreatic": "KETAAAKFERQHMDSSTSAASSSNYCNQMMKSRNLTKDRCKPVNTFVHESLADVQAVCSQKNVACKNGQTNCYQSYSTMSITDCRETGSSKYPNCAYKTTQANKHIIVACEGNPYVPVHFDASV"}}, "key": {"[1]": {"system": "E. coli", "assay": "Bactericidal assay (CFU recovery), strain not specified", "type": "cell-based", "method": "(§1) In a typical experiment, a culture of E. coli (in log phase growth, OD600=0.2-0.3) was repeatedly pelleted (3×3,500 rpm) and resuspended in PBS (pH 7.4). The PBS suspended cells were then added to glass vials and cooled to 4° C. Hematoporphyrin IX (40 μM) and antibody (20 μM) were added and the vials were either placed on a light box (visible light, 2.8 mW cm^−2) or in the dark at 4° C. and incubated for 1 h. Viability was determined by recovery of colony forming units (CFUs) on agar plates. Each experiment was performed at least in duplicate.\n(§2) In a typical experiment, a culture of E. coli (in log phase growth, OD600=0.2-0.3) was repeatedly washed in PBS by pelleting (3×3,500 rpm) the cells and resuspending them in PBS (pH 7.4). The PBS suspended cells were then added to glass vials and cooled to 4° C. Hematoporphyrin IX (40 μM) and antibody (20 μM) were added and the vials were either placed on a light box (visible light, 2.8 mW cm^−2) or in the dark at 4° C. and incubated for 1 h. Viability was determined by recovery of colony forming units (CFUs) on agar plates. Each experiment was performed at least in duplicate."}, "[2]": {"system": "S. typhimurium", "assay": "Bactericidal assay (CFU recovery)", "type": "cell-based, Salmonella typhimurium", "method": "In a typical experiment, a culture of S. typhimurium in log phase growth at OD600=0.2-0.3 was repeatedly pelleted (3×3,500 rpm) and resuspended in PBS (pH 7.4). The PBS suspended cells were then added to glass vials and cooled to 4° C. hematoporphyrin IX solution (40 μM) and antibody (20 μM) were added. The vials were placed either on a light box (visible light, 2.8 mW cm^−2) or in the dark at 4° C. Incubation was for 1 hour. Viability was determined by recovery of colony forming units (CFUs) on agar plates. Each experiment was performed with at least duplicate samples."}, "[3]": {"assay": "H2O2 production by UV irradiation of antibody/protein samples (Amplex Red assay)", "type": "biochemical", "method": "Aliquots (10 μL) were removed at timed intervals throughout the assay. H2O2 concentration was determined by the amplex red method. Each data point is reported as the mean±SEM of at least duplicate measurements: • polyclonal (poly) immunoglobulin (Ig) G, human; O poly-IgG, horse; □ poly-IgG, sheep; ∇ monoclonal (m) IgG (WD1-6G6), murine; Δ poly-IgM, human; ⋄ mIgG (92H2), murine; ▪ β-galactosidase (β-gal); ▴ chick ovalbumin (OVA); ▾ α-lactalbumin (α-lact); ♦ bovine serum albumin (BSA).\nAn aliquot (20 μl) from the protein solution was removed and added into a well of a 96-well microtiter plate (Costar) containing reaction buffer (80 μl). Working solution (100 μl/400 μM Amplex Red reagent 1/2 units/ml horseradish peroxidase) was then added, and the plate was incubated in the dark for 30 min. The fluorescence of the well components was then measured using a CytoFluor Multiwell Plate Reader (Series 4000, PerSeptive Biosystems, Framingham, Mass.; Ex/Em: 530/580 nm). The hydrogen peroxide concentration was determined using a standard curve. All experiments were run in duplicate, and the rate is quoted as the mean of at least two measurements.\nThe resultant solution was transferred to a glass, screw-cap vial and irradiated with UV light for 30 min. The concentration of H2O2 was determined after 30 min."}, "[4]": {"system": "E. coli XL1-blue", "assay": "Bactericidal assay (CFU recovery)", "type": "cell-based", "method": "as §1, §2"}, "[5]": {"assay": "Decomposition of O3 under aqueous conditions", "type": "physicochemical", "details": "PBS pH 7.4, 22° C., OD 260 nm", "method": "The rate of decomposition of O3 under the aqueous conditions employed was measured by the following method. Ozone, produced by a passage of O2 through a Polymetrics ozonizer, was bubbled for 2 min through a phosphate buffered saline (PBS, pH 7.4) solution in a quartz cuvette (1 cm^2) at room temperature. The time-dependent change in optical density was then measured at 260 nm (ε=2,700 M^−1 cm^−1) for at least 5 half lives in a Hitachi u.v./vis spectrophotometer equipped with a thermostatted rack at 22° C. See Takeuchi et al., Anal. Chim. Acta. 230, 183 (1990). […] The sensitivity of the assay was limited by spectrophotometer accuracy to±0.1% (˜1 μM) of the OD at t=0."}, "[6]": {"system": "E. coli O112a,c", "type": "cell-based", "details": "40 μM, white light 2.7 mW cm^−2, 1 h, PBS pH 7.4, 4±1° C.", "method": "as §1, §2"}}, "note": "Entries after “also recorded” stand apart in the source; their conditions may differ. Read-outs that look alike come from different tables or passages of the source."}
{"molecule": "O=C(O)CN(CCN(CC(=O)O)CC(=O)O)CC(=O)O", "note": "[EDTA]", "values": [{"measurement": "effect on survival of bacteria in the assay system", "setting": "[1]; 2 mM", "result": "no effect on the survival of bacteria"}, {"measurement": "effect on survival of bacteria in the assay system", "setting": "[2]; 2 mM", "result": "no effect on the survival of bacteria"}]}
{"molecule": "β-galactosidase: most efficient non-immunoglobulin protein at generating H2O2", "values": [{"measurement": "H2O2 photo-production", "setting": "[3]; near-UV irradiation, from its 39 Trp residues", "result": 5.9, "unit": "mol eq."}]}
{"molecule": "N[C@@H](Cc1c[nH]c2ccccc12)C(=O)O", "note": "[tryptophan]", "values": [{"measurement": "H2O2 production during photo-oxidation", "setting": "[3]; near-UV irradiation, tryptophan 20 μM", "result": "ca. 0.5 mole equivalents"}]}
{"molecule": "chick ovalbumin: chick-egg ovalbumin", "values": [{"measurement": "ability to reduce 1O2 (produce reactive oxygen species from singlet oxygen), panel of other proteins", "setting": "[3]", "result": "one of the most efficient proteins at reducing ^1O2"}]}
{"molecule": "catalase", "values": [{"measurement": "protection against the bactericidal activity of non-specific antibodies", "setting": "[4]; FIG. 17A, catalase 13 mU/mL", "result": "complete protection"}, {"measurement": "effect on bactericidal activity of non-specific antibodies", "setting": "[1]; catalase 13 mU/mL, 11 non-specific murine monoclonal antibodies", "result": "completely attenuated"}]}
{"molecule": "O=[O+][O-]", "note": "[Clone O3, ozone]", "values": [{"measurement": "half-life (t½)", "setting": "[5]", "result": 66, "unit": "s"}, {"measurement": "half-life (t½)", "setting": "[5]; listed as ozone", "result": 6, "unit": "s"}]}
{"molecule": "bovine serum albumin: non-specific protein control", "values": [{"measurement": "bacterial killing", "setting": "[1]; 20 μM", "result": "no bacterial killing"}, {"measurement": "bacterial killing", "setting": "[2]; 20 μM", "result": "no bacterial killing"}]}
{"molecule": "CC1=C(CCC(=O)O)c2cc3[nH]c(cc4nc(cc5[nH]c(cc1n2)c(C)c5C(C)O)C(C)=C4C(C)O)c(C)c3CCC(=O)O", "note": "(centres unmarked) [hematoporphyrin IX]", "values": [{"measurement": "bactericidal activity of sensitizer alone", "setting": "[4]; 40 μM, white light 2.7 mW cm^−2, 1 h, PBS pH 7.4, 4±1° C.", "result": "negligible bactericidal activity"}, {"measurement": "bactericidal activity of sensitizer alone", "setting": "[6]", "result": "negligible bactericidal activity"}]}
{"molecule": "superoxide dismutase: enzyme from Sigma, non-immunoglobulin control protein", "values": [{"measurement": "ability to reduce 1O2 (produce reactive oxygen species from singlet oxygen), panel of other proteins", "setting": "[3]", "result": "do not reduce ^1O2; also recorded: does not reside"}, {"measurement": "rate of hydrogen peroxide generation", "setting": "[3]; superoxide dismutase irradiated in PBS", "result": "the same as irradiation of PBS alone"}]}
{"molecule": "B1", "values": [{"measurement": "ability to reduce 1O2 (produce reactive oxygen species from singlet oxygen), panel of other proteins", "setting": "[3]", "result": "do not reduce ^1O2"}, {"measurement": "ability to reduce 1O2 (produce reactive oxygen species from singlet oxygen), panel of other proteins", "setting": "[3]; listed as RNaseA", "result": "does not reside"}]}
